Source: article PMC4754833, “Rilpivirine analogs potently inhibit drug-resistant HIV-1 mutants” (Retrovirology, 2016)
Like-named read-outs stand apart in the source and are kept apart here.

Experiments:
HIV-1 RT mutant K103N = system: HIV-1 RT mutant K103N; parameters: method as in PMID 23217210; conditions: previous study; cited from earlier work
WT HIV-1 [1] = assay: single round infection luciferase assay, WT HIV-1; assay type: cell-based; conditions: Human immunodeficiency virus 1
Method: (§1) The human osteosarcoma cell line, HOS, was obtained from Dr. Richard Schwartz (Michigan State University, East Lansing, MI) and grown in Dulbecco’s modified Eagle’s medium (Invitrogen, Carlsbad, CA) supplemented with 5 % (v/v) fetal bovine serum, 5 % newborn calf serum, and penicillin (50 units/ml) plus streptomycin (50 µg/ml; Quality Biological, Gaithersburg, MD). Virion production and single-round infectivity assays were used to determine antiviral activity (IC50 values) of the compounds as previously described.
(§2) pNLNgoMIVR-ΔEnv.LUC has been described previously. The RT open reading frame was removed from pNLNgoMIVR-ΔEnv.LUC (digestion with SpeI and SalI) and inserted between the SpeI and SalI sites of pBluescript II KS+. Using that construct as the wild-type template, we prepared the following HIV-1 RT mutants using the QuikChange II XL (Stratagene, La Jolla, CA) site-directed mutagenesis protocol kit: L100I, K103N, Y181C, Y188L, H221Y, K103N/Y181C, G190A, G190S, M230L, P236L, L100I/K103N, K103N/P225H, V106A/G190A/F227L, V106A, L234I, V106A/F227L, V106A/L234I, V106A/F227L/L234I, E40K, D67E, K101E, V111A, E138K, M184I, M184V, K101E/M184I, K101E/M184V, E138K/M184I, E138K/M184V, K101P, Y181I, and K101P/V179I. The following sense oligonucleotides were used with matching cognate antisense oligonucleotides (not shown) (Integrated DNA Technologies, Coralville, IA) in the mutagenesis: L100I, 5′-[…]-3′; L100I 2-103, 5′-[…]-3′; K103N, 5′-[…]-3′; Y181C, 5′-[…]-3′; Y188L, 5′-[…]-3′; H221Y, 5′-[…]-3′; G190A, 5′-[…]-3′; G190S, 5′-[…]-3′; P225H, 5′-[…]-3′; F227, 5′-[…]-3′; M230L, 5′-[…]-3′; P236L, 5′-[…]-3′; V106A, 5′-[…]-3′; L234I, 5′-[…]-3′; E40K, 5′-[…]-3′; D67E, 5′-[…]-3′; K101E, 5′-[…]-3′; V111A, 5′-[…]-3′; E138K, 5′-[…]-3′; M184I, 5′-[…]-3′; M184V, 5′-[…]-3′; K101P, 5′-[…]-3′; Y181I, 5′-[…]-3′; K101P/V179I, 5′-[…]-3′. The double mutants K103N/Y181C, K103N/P225H, and L100I/K103N were made using the previously generated K103N mutant and the appropriate oligonucleotides to add the second mutation, Y181C, P225, and L100I respectively. The double mutants V106A/F227L and V106A/L234I were prepared using the previously generated V106A mutant and the appropriate oligonucleotides to add the second mutation, F227L and L234I, respectively. The double mutants K101E/M184I and K101E/M184V were constructed using the previously generated K101E mutant and the appropriate oligonucleotides to add the second mutation, M184I and M184V, respectively. The double mutants E138K/M184I and E138K/M184V were constructed using the previously generated E138K mutant and the appropriate oligonucleotides for the second mutation, M184I and M184V, respectively. The triple mutant V106A/F227L/L234I was made using the previously generated V106A/F227L double mutant and the appropriate oligonucleotides for the third mutation, L234I. The triple mutant V106A/G190A/F227L was constructed in a series of steps using the previously generated V106A mutant and the appropriate oligonucleotides for the second mutation, G190A, to generate the double mutant V106A/G190A, and then the triple mutant was made using double mutant V106A/G190A and oligonucleotides for the third mutation, F227L. The DNA sequence of each construct was verified by DNA sequence determination. The sequences encoding the mutant RTs were then subcloned into pNLNgoMIVR-ΔEnv.LUC (between the KpnI and SalI sites) to produce the mutant HIV-1 constructs. These DNA sequences were also checked independently by DNA sequence determination.
(§3) 10.1186/s12977-016-0244-2 The IC50 values (nM) of RPV and the RPV analogs were determined against the NNRTI resistant mutants were measured by using a single round infection assay, n = 4. The concentrations (nM) are measured by reductions in luciferase reporter activity followed by the standard deviations. […]

[2] = system: HIV-1 RT mutant K101E/M184I; assay: single round infection assay, K101E/M184I; assay type: cell-based; conditions: for fold-change of IC50 of the mutant relative to WT: K101E/M184I vs WT; for IC50: ± SD, n=4
Method: as §1, §2, §3

HIV-1 RT mutant H221Y = system: HIV-1 RT mutant H221Y; parameters: method as in PMID 23217210; conditions: previous study; cited from earlier work
HIV-1 RT mutant D67E = assay: single round infection assay, D67E; assay type: cell-based; conditions: for fold-change of IC50 of the mutant relative to WT: D67E vs WT; for IC50: ± SD, n=4
Method: as §1, §2, §3

HIV-1 RT mutant G190S = assay: single round infection assay, G190S; assay type: cell-based; conditions: Human immunodeficiency virus 1
Method: as §1, §2, §3

HIV-1 RT mutant Y181C = system: HIV-1 RT mutant Y181C; parameters: method as in PMID 23217210; conditions: previous study; cited from earlier work
[3] = system: HIV-1 RT mutant V106A/F227L; assay: single round infection assay, V106A/F227L; assay type: cell-based; conditions: for IC50: ± SD, n=4; for fold-change of IC50 of the mutant relative to WT: V106A/F227L vs WT
Method: as §1, §2, §3

HIV-1 RT mutant L100I = system: HIV-1 RT mutant L100I; parameters: method as in PMID 23217210; conditions: previous study; cited from earlier work
[4] = system: HIV-1 RT mutant L100I/K103N; assay: single round infection assay, L100I/K103N; assay type: cell-based; conditions: for IC50: ± SD, n=4, limit of detection 100 nM; for fold-change of IC50 of the mutant relative to WT: L100I/K103N vs WT
Method: as §1, §2, §3

[5] = system: HIV-1 RT mutant E138K/M184I; assay: single round infection assay, E138K/M184I; assay type: cell-based; conditions: for fold-change of IC50 of the mutant relative to WT: E138K/M184I vs WT; for IC50: Human immunodeficiency virus 1, E138K/M184I, ± SD, n=4
Method: as §1, §2, §3

HIV-1 RT mutant Y181I = assay: single round infection assay, Y181I; assay type: cell-based; conditions: for IC50: Human immunodeficiency virus 1; for fold-change of IC50 of the mutant relative to WT: Y181I vs WT
Method: as §1, §2, §3

WT HIV-1 [6] = conditions: previous study; cited from earlier work
[7] = system: HIV-1 RT mutant E138K/M184V; assay: single round infection assay, E138K/M184V; assay type: cell-based; conditions: for fold-change of IC50 of the mutant relative to WT: E138K/M184V vs WT; for IC50: ± SD, n=4
Method: as §1, §2, §3

[8] = Human immunodeficiency virus 1, D67E
[9] = Human immunodeficiency virus 1, V106A/F227L (selected by DOR)
[10] = Human immunodeficiency virus 1, L100I/K103N
[11] = Human immunodeficiency virus 1, K101E/M184I
[12] = Human immunodeficiency virus 1, E138K/M184V

Structure (SMILES) | IC50 (HIV-1 RT mutant K103N) | IC50 (WT HIV-1 [1]) | fold-change of IC50 of the mutant relative to WT [2] | IC50 (HIV-1 RT mutant H221Y) | fold-change of IC50 of the mutant relative to WT (HIV-1 RT mutant D67E) | IC50 (HIV-1 RT mutant D67E; [8]) | IC50 (HIV-1 RT mutant G190S) | IC50 (HIV-1 RT mutant Y181C) | IC50 [3, 9] | IC50 ([3]; V106A/F227L (selected by DOR)) | fold-change of IC50 of the mutant relative to WT [3] | IC50 (HIV-1 RT mutant L100I) | IC50 [4, 10] | fold-change of IC50 of the mutant relative to WT [4] | fold-change of IC50 of the mutant relative to WT [5] | IC50 (HIV-1 RT mutant Y181I) | IC50 (WT HIV-1 [6]) | fold-change of IC50 of the mutant relative to WT [7] | fold-change of IC50 of the mutant relative to WT (HIV-1 RT mutant Y181I) | IC50 [7, 12] | further results
CC(=O)c1ccc(Nc2nc(Nc3c(C)cc(/C=C/C#N)cc3C)nc3[nH]cnc23)cc1 [compound 14] | < 7 nM | 0.41 ± 0.08 nM | < 2 | < 7 nM | 4 | < 2.5 nM | 0.35 ± 0.05 nM | < 7 nM | < 5 nM | 4.9 ± 1.3 nM | 12 | < 7 nM | 12.6 nM | 31 | 3 | > 100 nM | < 7 nM | 2 | – | – | IC50 (HIV-1 RT mutant D67E; D67E): 1.7 ± 0.21 nM
Cc1cc(/C=C/C#N)cc(C)c1Nc1ncc([N+](=O)[O-])c(Nc2ccc(C#N)cc2)n1 [compound 8] | < 7 nM | 1.6 ± 0.2 nM | 4 | < 7 nM | 8 | 12.7 nM | 0.17 ± 0.02 nM | < 7 nM | < 5 nM | 6.3 ± 2 nM | 4 | < 7 nM | < 5.4 nM | 3 | < 2 | 74.8 nM | < 7 nM | < 2 | 47 | – | IC50 [2, 11]: < 6 nM; IC50 ([2]; K101E/M184I): 6 ± 1.6 nM; IC50 ([4]; L100I/K103N): 5.4 ± 0.35 nM
Cc1cc(/C=C/C#N)cc(C)c1Nc1nc(Nc2ccc(C#N)cc2)ncc1[N+](=O)[O-] [compound 6] | < 7 nM | 0.5 ± 0.17 nM | < 2 | < 7 nM | 3 | < 2.5 nM | 0.2 ± 0.09 nM | < 7 nM | – | – | 4 | < 7 nM | – | 4 | 2 | 55.3 nM | < 7 nM | 3 | 110 | < 2.5 nM | IC50 (HIV-1 RT mutant D67E; D67E): 1.7 ± 0.14 nM; IC50 ([7]; E138K/M184V): 1.63 ± 0.08 nM
COc1ccc(Cn2cnc3c(Nc4ccc(C#N)cc4)nc(Nc4c(C)cc(/C=C/C#N)cc4C)nc32)cc1 [compound 12] | < 7 nM | 0.67 ± 0.06 nM | 4 | < 7 nM | 43 | 29 ± 6.9 nM | 0.37 ± 0.02 nM | < 7 nM | < 5 nM | 7.6 ± 0.5 nM | 11 | < 7 nM | < 5.4 nM | 6 | 4 | > 100 nM | < 7 nM | 7 | – | 4.9 ± 0.99 nM | IC50 [2, 11]: 2.7 ± 0.71 nM; IC50 ([4]; L100I/K103N): 4.3 ± 2.6 nM; IC50 [5]: 2.4 ± 0.5 nM
Cc1cc(/C=C/C#N)cc(C)c1Nc1nc(Nc2ccc(C(F)(F)F)cc2)c2nc[nH]c2n1 [compound 15] | < 7 nM | 1.7 ± 0.3 nM | < 2 | < 7 nM | 8 | 13.1 nM | 0.35 ± 0.05 nM | < 7 nM | – | – | – | < 7 nM | 15.5 nM | 9 | < 2 | 50.2 nM | < 7 nM | < 2 | 30 | < 6 nM | IC50 ([7]; E138K/M184V): 3.1 ± 0.4 nM
Cc1cc(/C=C/C#N)cc(C)c1Nc1ncc2ncn(-c3ccc(C#N)cc3)c2n1 [compound 26] | – | 7.7 nM | – | – | 8 | 62.3 ± 1.3 nM | 2.1 nM | – | – | – | 8 | – | > 100 nM | – | 3 | > 100 nM | – | < 2 | – | 13.2 ± 2.3 nM | IC50 [2, 11]: 7.3 ± 1.8 nM; IC50 [5]: 24.5 ± 4.8 nM
Cc1cc(/C=C/C#N)cc(C)c1-n1cnc2cnc(Nc3ccc(C#N)cc3)nc21 [compound 27] | < 7 nM | 0.58 ± 0.24 nM | – | < 7 nM | 2 | – | 0.1 ± 0.01 nM | < 7 nM | < 5 nM | 2.9 ± 0.3 nM | 5 | < 7 nM | 39.8 nM | 69 | < 2 | 23.1 nM | < 7 nM | 3 | 40 | < 2.5 nM | IC50 ([7]; E138K/M184V): 1.8 ± 0.8 nM
